Laboratory results: patent US10047051B2, “Substituted pyridines and method of use” (AbbVie S.á{acute over (.)}r.l., priority 2015, dated 2018)

Columns and labels:
Format in all cases: cell-based
CFTR ΔF508 mutant = target: T1, CFTR ΔF508 mutant (Homo sapiens, UniProt P13569, DEL508-508); assay: YFP-halide influx assay for the CFTR-ΔF508 mutation (CFBE41o- cells); conditions: forskolin 10.67 μM; for EC50: from (1−F/F0) vs concentration plot
T1 construct: expressed in transfected cells; host or cells: CFBE41o- cells, adenoviral transduction
Procedure, shortened: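 CFBE41o- cells transduced with adenovirus expressing CFTR ΔF508 and halide-sensitive YFP H148Q/I152L/F47L, then held 24 h at 27° C or with a CFTR modulator 24 h at 37° C. Iodide-induced quench recorded 2 min; EC50 from (1−F/F0) at 36 s versus concentration.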

CFTR G551D mutant = target: T2, CFTR G551D mutant (Homo sapiens, UniProt P13569, G551D); assay: YFP-halide influx assay for the CFTR-G551D mutation (HEK293 cells); conditions: forskolin 10.67 μM
T2 construct: expressed in transfected cells; host or cells: HEK293 cells, reverse transfection with plasmids
Procedure, shortened: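 HEK293 cells reverse-transfected with CFTR G551D and halide-sensitive YFP (H148Q/I152L/F47L), expressed 24 h at 37 °C. YFP fluorescence quenching recorded for 7 s after I⁻ injection. Response = 1−F/F0; EC50 derived from 1−F/F0 vs compound concentration.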

CFTR-G178R = target: T3, CFTR-G178R (Homo sapiens, UniProt P13569, G178R); assay: YFP-halide influx assay for the CFTR-G178R
T3 construct: expressed in transfected cells
From the text: (§1) The YFP halide influx assay measured the functionality of the cystic fibrosis Transmembrane Conductance regulator (CFTR) channels. The assay was used to evaluate the capacity of compounds to increase the channel opening of existing mutant CFTR channels in the membrane. It makes use of the observation that the yellow fluorescent protein (YFP) variant YFP H148Q, I152L, F47L has its fluorescence substantially quenched by halide ions like Cl^− and I^− (Galietta, L. J. V., Haggie, P. M., Verkman, A. S., 2001. Green fluorescent protein-based halide indicators with improved chloride and iodide affinities. FEBS Lett. 499, 220-224. doi:10.1016/S0014-5793(01)02561-3).
(§2) For this purpose, HEK293-cells were seeded in 96 well plates. During seeding, the cells were reverse-transfected with plasmid vectors that direct the expression of the CFTR G551D mutant and of the YFP reporter. Cells were incubated at 37° C., 5% CO2 for 24 hours so as to allow for sufficient expression of the CFTR protein.
(§3) The I^−-induced quenching of fluorescence was recorded immediately after injection of I^− for 7 seconds. The capacity of a compound to increase the channel opening was directly correlated with the decrease in fluorescence, and was expressed as (1−(fluorescence after 7 seconds (F)/fluorescence before injection (F0))) and an EC50 was derived from a (1−F/F0) vs compound concentration plot.
(§4) Similar YHA assays were developed for other channel gating defective or channel conductance defective CFTR mutants to determine effect of compound on channel activity. Examples of mutants are G178R, G1349D, S549N, R117H, R334W. This assay is also used for additional class I CFTR mutants, including G542X, W1282X; class II mutants including N1303K, and for class III mutants including S1251N; or wild-type CFTR.

CFTR-G1349D = target: T4, CFTR-G1349D (Homo sapiens, UniProt P13569, G1349D); assay: YFP-halide influx assay for the CFTR-G1349D
T4 construct: expressed in transfected cells
From the text: as §1, §2, §3, §4

CFTR-S549N = target: T5, CFTR-S549N (Homo sapiens, UniProt P13569, S549N); assay: YFP-halide influx assay for the CFTR-S549N; set-up: % Activation: concentration or dose not given beside the values
T5 construct: expressed in transfected cells
From the text: as §1, §2, §3, §4

CFTR-R117H = target: T6, CFTR-R117H (Homo sapiens, UniProt P13569, R117H); assay: YFP-halide influx assay for the CFTR-R117H
T6 construct: expressed in transfected cells
From the text: as §1, §2, §3, §4

T1 sequence (P13569 with tags, fused parts or gaps DEL508-508): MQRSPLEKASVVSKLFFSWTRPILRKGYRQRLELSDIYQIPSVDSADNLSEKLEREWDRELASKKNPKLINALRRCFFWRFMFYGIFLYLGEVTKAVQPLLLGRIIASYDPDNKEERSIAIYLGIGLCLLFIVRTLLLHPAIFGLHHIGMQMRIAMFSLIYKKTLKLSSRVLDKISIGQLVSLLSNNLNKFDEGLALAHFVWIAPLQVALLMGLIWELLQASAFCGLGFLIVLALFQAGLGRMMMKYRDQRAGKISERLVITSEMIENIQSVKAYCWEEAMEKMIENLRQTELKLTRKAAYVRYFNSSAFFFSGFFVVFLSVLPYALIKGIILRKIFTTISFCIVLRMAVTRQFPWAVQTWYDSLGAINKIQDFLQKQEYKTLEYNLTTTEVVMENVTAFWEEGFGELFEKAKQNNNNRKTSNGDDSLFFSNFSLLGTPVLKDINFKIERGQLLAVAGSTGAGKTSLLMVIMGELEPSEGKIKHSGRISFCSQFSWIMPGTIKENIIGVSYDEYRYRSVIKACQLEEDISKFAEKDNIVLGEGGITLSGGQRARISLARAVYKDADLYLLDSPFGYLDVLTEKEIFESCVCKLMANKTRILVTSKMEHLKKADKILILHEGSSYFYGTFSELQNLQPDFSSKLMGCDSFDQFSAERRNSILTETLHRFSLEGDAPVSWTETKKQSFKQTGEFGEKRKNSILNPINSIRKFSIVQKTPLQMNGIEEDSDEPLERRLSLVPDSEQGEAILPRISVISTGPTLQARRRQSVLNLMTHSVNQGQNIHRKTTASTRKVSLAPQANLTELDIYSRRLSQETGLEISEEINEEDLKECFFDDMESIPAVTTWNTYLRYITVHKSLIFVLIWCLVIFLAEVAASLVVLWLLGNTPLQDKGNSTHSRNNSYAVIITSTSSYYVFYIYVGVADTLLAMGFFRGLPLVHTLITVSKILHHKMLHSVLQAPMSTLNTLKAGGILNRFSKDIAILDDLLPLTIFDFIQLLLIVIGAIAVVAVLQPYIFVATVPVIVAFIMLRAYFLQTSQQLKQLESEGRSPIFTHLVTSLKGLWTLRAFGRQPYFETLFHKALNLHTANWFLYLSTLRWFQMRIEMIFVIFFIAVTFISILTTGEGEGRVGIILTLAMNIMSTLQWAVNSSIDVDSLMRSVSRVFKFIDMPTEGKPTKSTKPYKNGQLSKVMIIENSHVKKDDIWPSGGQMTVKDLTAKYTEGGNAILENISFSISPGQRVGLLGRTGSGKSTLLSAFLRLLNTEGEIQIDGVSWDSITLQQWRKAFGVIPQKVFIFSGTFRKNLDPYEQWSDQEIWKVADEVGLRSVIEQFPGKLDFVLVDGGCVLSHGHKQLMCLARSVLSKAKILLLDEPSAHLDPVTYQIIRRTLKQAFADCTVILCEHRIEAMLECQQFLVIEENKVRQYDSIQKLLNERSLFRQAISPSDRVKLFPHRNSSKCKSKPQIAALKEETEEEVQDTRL
T3 sequence (P13569 whole entry G178R): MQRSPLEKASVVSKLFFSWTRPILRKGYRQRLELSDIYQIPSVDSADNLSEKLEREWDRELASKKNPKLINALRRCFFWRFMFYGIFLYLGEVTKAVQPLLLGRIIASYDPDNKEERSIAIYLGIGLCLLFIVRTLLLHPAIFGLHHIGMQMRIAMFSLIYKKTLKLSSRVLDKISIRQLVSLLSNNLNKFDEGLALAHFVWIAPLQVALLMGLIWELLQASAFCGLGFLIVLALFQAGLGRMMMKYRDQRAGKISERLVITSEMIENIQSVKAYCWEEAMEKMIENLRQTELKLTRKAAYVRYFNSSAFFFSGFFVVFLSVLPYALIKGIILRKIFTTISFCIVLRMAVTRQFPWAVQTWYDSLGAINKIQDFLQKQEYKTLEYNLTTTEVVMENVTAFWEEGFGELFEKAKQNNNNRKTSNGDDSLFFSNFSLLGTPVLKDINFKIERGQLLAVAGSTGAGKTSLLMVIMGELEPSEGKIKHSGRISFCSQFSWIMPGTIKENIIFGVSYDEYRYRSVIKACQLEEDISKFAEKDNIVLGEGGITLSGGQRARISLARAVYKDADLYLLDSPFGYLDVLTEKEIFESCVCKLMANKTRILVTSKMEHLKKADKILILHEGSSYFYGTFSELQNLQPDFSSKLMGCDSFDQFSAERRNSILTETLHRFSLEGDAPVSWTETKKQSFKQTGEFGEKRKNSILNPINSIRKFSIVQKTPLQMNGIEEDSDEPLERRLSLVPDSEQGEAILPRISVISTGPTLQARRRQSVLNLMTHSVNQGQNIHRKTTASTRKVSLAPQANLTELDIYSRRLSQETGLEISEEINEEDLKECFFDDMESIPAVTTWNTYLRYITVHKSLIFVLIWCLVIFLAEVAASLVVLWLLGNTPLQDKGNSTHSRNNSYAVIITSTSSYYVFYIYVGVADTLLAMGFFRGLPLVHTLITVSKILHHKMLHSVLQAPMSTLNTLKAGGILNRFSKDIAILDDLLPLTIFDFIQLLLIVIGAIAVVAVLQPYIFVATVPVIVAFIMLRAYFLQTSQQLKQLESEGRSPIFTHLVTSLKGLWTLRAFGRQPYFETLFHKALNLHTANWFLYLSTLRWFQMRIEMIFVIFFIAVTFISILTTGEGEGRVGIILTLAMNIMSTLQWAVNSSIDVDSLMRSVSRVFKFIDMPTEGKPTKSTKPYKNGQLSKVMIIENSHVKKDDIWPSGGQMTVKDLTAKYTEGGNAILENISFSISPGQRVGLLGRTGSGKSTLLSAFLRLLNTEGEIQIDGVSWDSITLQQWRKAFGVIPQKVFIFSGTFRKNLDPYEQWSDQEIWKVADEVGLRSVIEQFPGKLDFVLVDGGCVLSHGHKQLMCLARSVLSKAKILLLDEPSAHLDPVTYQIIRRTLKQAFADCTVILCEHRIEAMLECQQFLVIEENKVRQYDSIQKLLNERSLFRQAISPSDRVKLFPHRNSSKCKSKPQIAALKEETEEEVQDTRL
T2 sequence (P13569 whole entry G551D): as the sequence (P13569 whole entry G178R) above, with R178G, G551D counted along it
T6 sequence (P13569 whole entry R117H): as the sequence (P13569 whole entry G178R) above, with R117H, R178G counted along it
T5 sequence (P13569 whole entry S549N): as the sequence (P13569 whole entry G178R) above, with R178G, S549N counted along it
T4 sequence (P13569 whole entry G1349D): as the sequence (P13569 whole entry G178R) above, with R178G, G1349D counted along it

SMILES | % Activation (CFTR ΔF508 mutant) [%] | EC50 (CFTR ΔF508 mutant) [nM] | % Activation (CFTR G551D mutant) [%] | EC50 (CFTR G551D mutant) [nM] | % Activation (CFTR-G178R) [%] | EC50 (CFTR-G178R) [nM] | % Activation (CFTR-G1349D) [%] | EC50 (CFTR-G1349D) [nM] | % Activation (CFTR-S549N) [%] | EC50 (CFTR-S549N) [nM] | % Activation (CFTR-R117H) [%] | EC50 (CFTR-R117H) [nM]
Nc1cc(S(=O)(=O)c2ccc(OC(F)(F)F)cc2)cnc1C(=O)N[C@@H]1COCC[C@@H]1O (racemic) [Compound 33, rac-3-amino-N-[(3R,4S)-4-hydroxytetrahydro-2H-pyran-3-yl]-5-{[4-(trifluoromethoxy)phenyl]sulfonyl}pyridine-2-carboxamide] | 98.6 | 42.8 | 62.3 | 1390 | 81.8 | 514 | 92.9 | 543 | 82.2 | 735 | 87.1 | 628
Nc1cc(S(=O)(=O)c2ccc(OC(F)(F)F)cc2)cnc1C(=O)N[C@@H]1COC[C@H]1O (racemic) [Compound 74, rac-3-amino-N-[(3R,4S)-4-hydroxytetrahydrofuran-3-yl]-5-{[4-(trifluoromethoxy)phenyl]sulfonyl}pyridine-2-carboxamide] | 110.0 | 17.2 | 65.0 | 839 | 84.3 | 348 | 86.8 | 511 | 91.4 | 567 | 100.0 | 866
CC(C)(C)C(O)CNC(=O)c1ncc(S(=O)(=O)c2ccc(OC(F)(F)F)cc2)cc1N (centres unmarked) [Compound 16, 3-amino-N-(2-hydroxy-3,3-dimethylbutyl)-5-{[4-(trifluoromethoxy)phenyl]sulfonyl}pyridine-2-carboxamide] | 106.5 | 15.7 | 96.2 | 1670 | 102.0 | 1010 | 99.6 | 698 | 114.0 | > 3330 | 112.0 | 431
Nc1cc(S(=O)(=O)c2ccccc2OC(F)(F)F)cnc1C(=O)NCCO [Compound 75, 3-amino-N-(2-hydroxyethyl)-5-{[2-(trifluoromethoxy)phenyl]sulfonyl}pyridine-2-carboxamide] | 121.0 | 7.6 | 68.5 | 1510 | 94.3 | 323 | 98.7 | 284 |  | 251 | 98.4 | 472
Nc1cc(S(=O)(=O)c2ccc(OC(F)(F)F)cc2)cnc1C(=O)N1CC(O)(C(F)(F)F)C1 [Compound 79, (3-amino-5-{[4-(trifluoromethoxy)phenyl]sulfonyl}pyridin-2-yl)[3-hydroxy-3-(trifluoromethyl)azetidin-1-yl]methanone] | 99.5 | 3.3 | 48.9 | 256 | 74.5 | 31.3 | 83.08 | 61.4 | 88.09 | 44.3 | 103.1 | 22.2
COC[C@H](O)CNC(=O)c1ncc(S(=O)(=O)c2ccccc2OC(F)(F)F)cc1N [Compound 177, 3-amino-N-[(2R)-2-hydroxy-3-methoxypropyl]-5-{[2-(trifluoromethoxy)phenyl]sulfonyl}pyridine-2-carboxamide] | 102.1 | 3.6 | 91.4 | 430 | 104.0 | 77.8 | 96.0 | 97.9 | 104.0 | 80.4 | 103.7 | 253
Nc1cc(S(=O)(=O)c2ccc(C(F)(F)F)cc2)cnc1C(=O)NCCO [Compound 217, 3-amino-N-(2-hydroxyethyl)-5-{[4-(trifluoromethyl)phenyl]sulfonyl}pyridine-2-carboxamide] | 103.4 | 36 | 51.8 | 3030 | 63.9 | 933 | 62.9 | 1350 | 55.9 | 401 | 92.1 | 765

Compounds with a lower EC50 (CFTR ΔF508 mutant), results first:

% Activation (CFTR ΔF508 mutant) [%] | EC50 (CFTR ΔF508 mutant) [nM] | % Activation (CFTR G551D mutant) [%] | EC50 (CFTR G551D mutant) [nM] | % Activation (CFTR-G178R) [%] | EC50 (CFTR-G178R) [nM] | % Activation (CFTR-G1349D) [%] | EC50 (CFTR-G1349D) [nM] | % Activation (CFTR-S549N) [%] | EC50 (CFTR-S549N) [nM] | % Activation (CFTR-R117H) [%] | EC50 (CFTR-R117H) [nM] | SMILES
102.0 | 3.2 | 95.1 | 946 | 95.08 | 81.1 | 98.43 | 119 | 108.5 | 144 | 111.5 | 408 | COCC(O)CNC(=O)c1ncc(S(=O)(=O)c2ccccc2OC(F)(F)F)cc1N (centres unmarked) [Compound 80, 3-amino-N-(2-hydroxy-3-methoxypropyl)-5-{[2-(trifluoromethoxy)phenyl]sulfonyl}pyridine-2-carboxamide]
122.0 | 3.1 | 69.3 | 332 | 78.08 | 32.5 | 85.79 | 55.3 | 98.52 | 139 | 89.91 | 59.5 | Nc1cc(S(=O)(=O)c2ccc(OC(F)(F)F)cc2)cnc1C(=O)N1CC(O)(C2CC2)C1 [Compound 86, (3-amino-5-{[4-(trifluoromethoxy)phenyl]sulfonyl}pyridin-2-yl)(3-cyclopropyl-3-hydroxyazetidin-1-yl)methanone]
106.0 | 2.7 | 89.9 | 795 | 106.7 | 84.7 | 92.74 | 102 | 106.9 | 122 | 128.3 | 1050 | C[C@H](O)CNC(=O)c1ncc(S(=O)(=O)c2ccccc2OC(F)(F)F)cc1N [Compound 82, 3-amino-N-[(2S)-2-hydroxypropyl]-5-{[2-(trifluoromethoxy)phenyl]sulfonyl}pyridine-2-carboxamide]
123.0 | 2.2 | 55.9 | 609 | 73 | 58.1 | 85.36 | 52.3 | 80.37 | 116 | 89.74 | 59.5 | Nc1cc(S(=O)(=O)c2ccccc2OC(F)(F)F)cnc1C(=O)N1CC(F)(F)C1 [Compound 78, (3-amino-5-{[2-(trifluoromethoxy)phenyl]sulfonyl}pyridin-2-yl)(3,3-difluoroazetidin-1-yl)methanone]
93.4 | 1 | 46.0 | 69.4 | 79.1 | 12.7 | 72.8 | 29.5 | 92.0 | 25.7 | 111.0 | 22.7 | Nc1cc(S(=O)(=O)c2ccc(F)cc2)cnc1C(=O)N1CC(O)(C(F)(F)F)C1 [Compound 176, {3-amino-5-[(4-fluorophenyl)sulfonyl]pyridin-2-yl}[3-hydroxy-3-(trifluoromethyl)azetidin-1-yl]methanone]
